According to patent US8338420B1, “Treatment of Parkinson's disease and enhancement of dopamine signal using PDE 10 inhibitor” (Mitsubishi Tanabe Pharma Corporation, priority 2002, dated 2012):

Biological target: T1, PDE11 (PDE11A) (Homo sapiens, UniProt Q9HCR9)
T1 construct: His tag (hexahistidine, pcDNA4/HisMax) (N); made in house
Assay: PDE assay, recombinant human PDE11A
Assay type: biochemical
Conditions: substrate about 12 nM [3H]-cGMP and 1 μM cGMP
Excerpt: Based on the information of cDNA sequence of human PDE7A (Genbank/EMBL Accession No. NM002603), a cDNA encoding human PDE7A was cloned by PCR method, according to a method described in Sasaki et al. (Sasaki et al., Biochem. Biophys. Res. Commun., vol. 271, pp. 575-583, 2000). Further, based on the information of cDNA sequence of human PDE8A (Genbank/EMBL Accession No. AF388183), a cDNA encoding human PDE8A was cloned by PCR method, according to a method described in Gamanuma et al. (Gamanuma et al., Cell Signal, 2003, vol. 15, pp. 565-574). Further, a cDNA encoding human PDE11A was obtained, according to a method reported in Yuasa et al. (Yuasa et al., J. Biol. Chem., vol. 275, pp. 31469-31479, 2000). Using these cDNAs, recombinant proteins of human PDE7A, human PDE8A, and human PDE11A were prepared as follows.
DNA fragments comprising a cDNA encoding human PDE7A, human PDE8A or human PDE11A were linked to pcDNA4/HisMax (available from Invitrogen), to give a vector plasmid for expression of human proteins, with a histidine tag peptide (hexahistidine), added to the N-terminus. COS-7 cells were transfected with these vector plasmids, and the cells were cultured in Dulbecco's modified Eagle medium containing 10% bovine fetal serum for about 24 hours. […]

T1 sequence (Q9HCR9 whole entry): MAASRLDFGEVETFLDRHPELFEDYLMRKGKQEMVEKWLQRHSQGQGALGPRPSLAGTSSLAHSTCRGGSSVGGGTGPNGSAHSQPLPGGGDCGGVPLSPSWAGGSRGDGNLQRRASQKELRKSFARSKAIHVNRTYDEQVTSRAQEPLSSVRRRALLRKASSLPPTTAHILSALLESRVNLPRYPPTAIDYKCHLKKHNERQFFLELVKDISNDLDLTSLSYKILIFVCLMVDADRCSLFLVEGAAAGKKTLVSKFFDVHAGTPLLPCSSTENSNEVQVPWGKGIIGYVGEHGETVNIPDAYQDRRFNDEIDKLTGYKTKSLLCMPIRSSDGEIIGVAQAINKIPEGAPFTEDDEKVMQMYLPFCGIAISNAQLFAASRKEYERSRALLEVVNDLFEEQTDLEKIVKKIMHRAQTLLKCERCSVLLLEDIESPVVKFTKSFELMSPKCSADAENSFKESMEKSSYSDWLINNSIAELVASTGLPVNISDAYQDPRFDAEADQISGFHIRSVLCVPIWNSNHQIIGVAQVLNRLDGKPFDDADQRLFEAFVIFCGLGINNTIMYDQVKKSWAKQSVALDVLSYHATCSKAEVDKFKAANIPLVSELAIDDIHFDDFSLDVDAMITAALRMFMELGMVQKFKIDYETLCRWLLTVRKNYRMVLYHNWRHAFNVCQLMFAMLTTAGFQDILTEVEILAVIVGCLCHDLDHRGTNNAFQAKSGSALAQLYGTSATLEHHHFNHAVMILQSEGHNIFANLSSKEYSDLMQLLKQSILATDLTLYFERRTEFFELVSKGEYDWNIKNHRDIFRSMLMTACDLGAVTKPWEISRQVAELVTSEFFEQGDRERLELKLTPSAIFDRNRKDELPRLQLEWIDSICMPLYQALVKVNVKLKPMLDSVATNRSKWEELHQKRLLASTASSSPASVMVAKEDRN

IC50: > 1 µM
Compound: COc1ccc(-c2cc(N3CCCC3)nc(/C=C/c3nc(-n4ccnc4)c4ccccc4n3)n2)cc1OC [Compound A, 2-{(E)-2-[4-(1-imidazolyl)-quinazolin-2-yl]}ethenyl-4-(3,4-dimethoxy)phenyl-6-(pyrrolidin-1-yl)pyrimidine]
